Here are results for 19 compounds from patent publication US9260467B2, “Sialic acid dimers” (priority 2011, dated 2016).

Molecules are shown by their SMILES.

For this experiment, the target named is T1, Siglec-2 (CD22) (Homo sapiens, UniProt P20273).
T1 sequence (P20273 20-847): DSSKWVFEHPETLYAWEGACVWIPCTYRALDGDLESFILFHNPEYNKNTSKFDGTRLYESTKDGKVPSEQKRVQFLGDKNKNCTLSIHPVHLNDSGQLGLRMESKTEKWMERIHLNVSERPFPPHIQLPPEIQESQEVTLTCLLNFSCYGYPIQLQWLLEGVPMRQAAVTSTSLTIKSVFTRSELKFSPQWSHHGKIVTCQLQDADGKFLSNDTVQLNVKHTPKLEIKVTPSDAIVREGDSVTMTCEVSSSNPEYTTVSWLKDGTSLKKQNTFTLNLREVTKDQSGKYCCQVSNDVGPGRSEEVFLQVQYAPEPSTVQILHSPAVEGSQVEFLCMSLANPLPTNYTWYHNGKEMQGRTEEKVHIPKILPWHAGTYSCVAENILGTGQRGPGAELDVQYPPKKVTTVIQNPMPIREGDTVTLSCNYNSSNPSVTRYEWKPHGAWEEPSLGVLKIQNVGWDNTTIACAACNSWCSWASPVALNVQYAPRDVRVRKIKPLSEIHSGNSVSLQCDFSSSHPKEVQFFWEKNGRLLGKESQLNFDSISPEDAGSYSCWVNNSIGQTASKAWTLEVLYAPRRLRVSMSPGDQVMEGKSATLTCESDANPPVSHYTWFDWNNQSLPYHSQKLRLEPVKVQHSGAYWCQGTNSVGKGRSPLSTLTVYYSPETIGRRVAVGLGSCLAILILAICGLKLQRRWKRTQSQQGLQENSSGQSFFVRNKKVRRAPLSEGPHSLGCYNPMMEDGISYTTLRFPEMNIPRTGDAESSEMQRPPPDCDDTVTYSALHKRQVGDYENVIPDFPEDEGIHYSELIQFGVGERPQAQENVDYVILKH
In words: new affinity assay: displacement of biotinylated compound 155 from sialidase-treated Daudi cells, FACS with streptavidin-PE. It counts as binding. The arrangement: endogenous in cells; host or cells: Daudi (human B-cell lymphoma line). To be noted: Table II; rIP values set relative to compound 38; Daudi cells, displacement of compound 155. The procedure: To determine the affinity of the compound of the formula (I), approximately 5×10^6 to 2×10^8 cells of the human B-cell lymphoma line “Daudi” were incubated with sialidase (A. ureafaciens) at 37° C. for 1 h (final concentration 0.1 unit/ml). […] Batches of 1-2×10^6 cells were transferred to sample vessels, and incubated on ice for 15 min with serial concentrations (10-fold dilutions, 1 mM to 1×10^−7 mM) of the substance under measurement (inhibitor). The reaction volume was 50 μl. Then 50 microliters of compound 155 (4-micromolar) were added, and incubation took place for 20 min Washing with FACS buffer (PBS, 0.1 BSA, 0.01% sodium azide) was followed by incubation with streptavidin-PE in the dark for 15 min, followed by washing and measurement of the bound amount of […] via the streptavidin-PE in the FACS. For the determination of 0% displacement of the compound 155, cells without inhibitor were measured. For the determination of 100% displacement, cells were measured without compound 155 and without inhibitor. For each assay, four substances and one reference were measured. The IC50 values determined in each assay were subsequently converted into values of rIP (relative Inhibitory Potency). […]
Compound `CC(=O)N[C@H]1[C@H]([C@H](O)[C@H](O)CNC(=O)c2ccc(-c3ccccc3)cc2)O[C@@](OCCCSCC(NC(=O)c2ccc(C(=O)NC(CSCCCO[C@]3(C(=O)[O-])C[C@H](O)[C@@H](NC(C)=O)[C@H]([C@H](O)[C@H](O)CNC(=O)c4ccc(-c5ccccc5)cc4)O3)C(=O)[O-])cc2)C(=O)[O-])(C(=O)[O-])C[C@@H]1O.[Na+].[Na+].[Na+].[Na+]` (stereo partly shown) [Compound 149] yielded a rIP of 378.
Consider `CC(=O)N[C@H]1[C@H]([C@H](O)[C@H](O)CNC(=O)c2ccc(-c3ccccc3)cc2)O[C@@](OCCCCCCNC(=O)c2ccc(C(=O)NCCSCCCO[C@]3(C(=O)O)C[C@H](O)[C@@H](NC(C)=O)[C@H]([C@H](O)[C@H](O)CNC(=O)c4ccc(-c5ccccc5)cc4)O3)cc2)(C(=O)O)C[C@@H]1O` [Compound 92], for which the rIP is recorded as 3788.
Consider `CC(=O)N[C@H]1[C@H]([C@H](O)[C@H](O)CNC(=O)c2ccc(-c3ccsc3)cc2)O[C@@](OCCCSCCNC(=O)c2ccc(C(=O)NCCSCCCO[C@]3(C(=O)[O-])C[C@H](O)[C@@H](NC(C)=O)[C@H]([C@H](O)[C@H](O)CNC(=O)c4ccc(-c5ccsc5)cc4)O3)cc2)(C(=O)[O-])C[C@@H]1O.[Na+].[Na+]` [Compound 81], for which the rIP is on record as 2068.
In the case of `CC(=O)N[C@H]1[C@H]([C@H](O)[C@H](O)CNC(=O)c2ccc(-c3ccccc3)cc2)O[C@@](OCCCSCCNC(=O)c2ccc(-c3ccc(C(=O)NCCSCCCO[C@]4(C(=O)[O-])C[C@H](O)[C@@H](NC(C)=O)[C@H]([C@H](O)[C@H](O)CNC(=O)c5ccc(-c6ccccc6)cc5)O4)cc3)cc2)(C(=O)[O-])C[C@@H]1O.[Na+].[Na+]` [Compound 24] it was 75; in that of `CC(=O)N[C@H]1[C@H]([C@H](O)[C@H](O)CNC(=O)c2ccc(-c3ccccc3)cc2)O[C@@](OCCCSCCNc2c(NCCSCCCO[C@]3(C(=O)[O-])C[C@H](O)[C@@H](NC(C)=O)[C@H]([C@H](O)[C@H](O)CNC(=O)c4ccc(-c5ccccc5)cc4)O3)c(=O)c2=O)(C(=O)[O-])C[C@@H]1O.[Na+].[Na+]` [Compound 51], 299.
Take `CC(=O)N[C@H]1[C@H]([C@H](O)[C@H](O)CNC(=O)c2ccc(-c3ccccc3)cc2)O[C@@](OCCCSCCNC(=O)c2ccc(NC(=O)CCSCCCO[C@]3(C(=O)[O-])C[C@H](O)[C@@H](NC(C)=O)[C@H]([C@H](O)[C@H](O)CNC(=O)c4ccc(-c5ccccc5)cc4)O3)cc2)(C(=O)[O-])C[C@@H]1O.[Na+].[Na+]` [Compound 54]: the rIP was 7092.
In the case of `CC(=O)N[C@H]1[C@H]([C@H](O)[C@H](O)CNC(=O)c2ccc(-c3ccccc3)cc2)O[C@@](OCCCSCCC(=O)NCCNC(=O)CCSCCCO[C@]2(C(=O)[O-])C[C@H](O)[C@@H](NC(C)=O)[C@H]([C@H](O)[C@H](O)CNC(=O)c3ccc(-c4ccccc4)cc3)O2)(C(=O)[O-])C[C@@H]1O.[Na+].[Na+]` [Compound 46] it was 290; in that of `CC(=O)N[C@H]1[C@H]([C@H](O)[C@H](O)CNC(=O)c2ccc(-c3ccco3)cc2)O[C@@](OCCCSCCNC(=O)c2ccc(C(=O)NCCSCCCO[C@]3(C(=O)[O-])C[C@H](O)[C@@H](NC(C)=O)[C@H]([C@H](O)[C@H](O)CNC(=O)c4ccc(-c5ccco5)cc4)O3)cc2)(C(=O)[O-])C[C@@H]1O.[Na+].[Na+]` [Compound 82], 752.
The value for `CC(=O)N[C@H]1[C@H]([C@H](O)[C@H](O)CNC(=O)c2ccc(-c3ccc(C(=O)[O-])cc3)cc2)O[C@@](OCCCSCCNC(=O)c2ccc(C(=O)NCCSCCCO[C@]3(C(=O)[O-])C[C@H](O)[C@@H](NC(C)=O)[C@H]([C@H](O)[C@H](O)CNC(=O)c4ccc(-c5ccc(C(=O)[O-])cc5)cc4)O3)cc2)(C(=O)[O-])C[C@@H]1O.[Na+].[Na+].[Na+].[Na+]` [Compound 68] was 5.
The value for `CC(=O)N[C@H]1[C@H]([C@H](O)[C@H](O)CNC(=O)c2ccc(C3CCCCC3)cc2)O[C@@](OCCCSCCNC(=O)CCCCC(=O)NCCSCCCO[C@]2(C(=O)[O-])C[C@H](O)[C@@H](NC(C)=O)[C@H]([C@H](O)[C@H](O)CNC(=O)c3ccc(C4CCCCC4)cc3)O2)(C(=O)[O-])C[C@@H]1O.[Na+].[Na+]` [Compound 58] was 24.
`CC(=O)N[C@H]1[C@H]([C@H](O)[C@H](O)CNC(=O)c2ccc(-c3ccccc3)cc2)O[C@@](OCCCSCCNC(=O)C2CCC(C(=O)NCCSCCCO[C@]3(C(=O)[O-])C[C@H](O)[C@@H](NC(C)=O)[C@H]([C@H](O)[C@H](O)CNC(=O)c4ccc(-c5ccccc5)cc4)O3)CC2)(C(=O)[O-])C[C@@H]1O.[Na+].[Na+]` (stereo partly shown) [Compound 31]: the rIP is recorded as 643.
In the case of `CC(=O)N[C@H]1[C@H]([C@H](O)[C@H](O)CNC(=O)Cc2ccc(-c3ccccc3)cc2)O[C@@](OCCCSCCNC(=O)c2ccc(-c3ccc(C(=O)NCCSCCCO[C@]4(C(=O)[O-])C[C@H](O)[C@@H](NC(C)=O)[C@H]([C@H](O)[C@H](O)CNC(=O)Cc5ccc(-c6ccccc6)cc5)O4)cc3)cc2)(C(=O)[O-])C[C@@H]1O.[Na+].[Na+]` [Compound 128] it was 19; in that of `CC(=O)N[C@H]1[C@H]([C@H](O)[C@H](O)CNC(=O)c2ccc(-c3ccccc3)cc2)O[C@@](OCCCSCCNC(=O)Nc2ccc(NC(=O)NCCSCCCO[C@]3(C(=O)[O-])C[C@H](O)[C@@H](NC(C)=O)[C@H]([C@H](O)[C@H](O)CNC(=O)c4ccc(-c5ccccc5)cc4)O3)cc2)(C(=O)[O-])C[C@@H]1O.[Na+].[Na+]` [Compound 49], 626.
In the case of `CC(=O)N[C@H]1[C@H]([C@H](O)[C@H](O)CNc2c(NCc3ccccc3)c(=O)c2=O)O[C@@](OCCCSCCNC(=O)c2ccc(C(=O)NCCSCCCO[C@]3(C(=O)[O-])C[C@H](O)[C@@H](NC(C)=O)[C@H]([C@H](O)[C@H](O)CNc4c(NCc5ccccc5)c(=O)c4=O)O3)cc2)(C(=O)[O-])C[C@@H]1O.[Na+].[Na+]` [Compound 134] it was 70.
In the case of `CC(=O)N[C@H]1[C@H]([C@H](O)[C@H](O)CNC(=O)c2ccc(-c3ccccc3)cc2)O[C@@](OCCCSCCC(=O)NCc2ccc(CNC(=O)CCSCCCO[C@]3(C(=O)[O-])C[C@H](O)[C@@H](NC(C)=O)[C@H]([C@H](O)[C@H](O)CNC(=O)c4ccc(-c5ccccc5)cc4)O3)cc2)(C(=O)[O-])C[C@@H]1O.[Na+].[Na+]` [Compound 44] it was 177; in that of `CC(=O)N[C@H]1[C@H]([C@H](O)[C@H](O)CNC(=O)c2ccc(-c3ccccc3)cc2)O[C@@](OCCCSCCNC(=O)c2ccc(C(=O)NCCSCCCO[C@]3(C(=O)[O-])C[C@H](O)[C@@H](NC(C)=O)[C@H]([C@H](O)[C@H](O)CNC(=O)c4ccc(-c5ccccc5)cc4)O3)nc2)(C(=O)[O-])C[C@@H]1O.[Na+].[Na+]` [Compound 27], 2990; in that of `CC(=O)N[C@H]1[C@H]([C@H](O)[C@H](O)CNC(=O)C#Cc2ccccc2)O[C@@](OCCCSCCNC(=O)c2ccc(-c3ccc(C(=O)NCCSCCCO[C@]4(C(=O)[O-])C[C@H](O)[C@@H](NC(C)=O)[C@H]([C@H](O)[C@H](O)CNC(=O)C#Cc5ccccc5)O4)cc3)cc2)(C(=O)[O-])C[C@@H]1O.[Na+].[Na+]` [Compound 129], 21.
As for `CC(=O)N[C@H]1[C@H]([C@H](O)[C@H](O)CNC(=O)c2ccc(-c3ccccc3)cc2)O[C@@](OCCCSCCNCc2ccc(CNCCSCCCO[C@]3(C(=O)[O-])C[C@H](O)[C@@H](NC(C)=O)[C@H]([C@H](O)[C@H](O)CNC(=O)c4ccc(-c5ccccc5)cc4)O3)cc2)(C(=O)[O-])C[C@@H]1O.[Na+].[Na+]` [Compound 52], the rIP was found to be 31.
The value for `CC(=O)N[C@H]1[C@H]([C@H](O)[C@H](O)CNC(=O)c2ccc(C3CCCCC3)cc2)O[C@@](OCCCSCCNC(=O)c2ccc(C(=O)NCCSCCCO[C@]3(C(=O)[O-])C[C@H](O)[C@@H](NC(C)=O)[C@H]([C@H](O)[C@H](O)CNC(=O)c4ccc(C5CCCCC5)cc4)O3)cc2)(C(=O)[O-])C[C@@H]1O.[Na+].[Na+]` [Compound 57] was 22.
